According to publication PMC6277767, “Broad and Region-Specific Impacts of the Synthetic Cannabinoid CP 55,940 in Adolescent and Adult Female Mouse Brains” (Frontiers in Molecular Neuroscience, 2018):

System: CD1 female mouse brain lipidome
Test: Brain-region lipid levels (HPLC/MS/MS lipidomics) 2 h after single i.p. 3 mg/kg CP 55,940 vs vehicle
Assay type: in vivo
Description: The Bloomington Institutional Animal Care and Use Committee of Indiana University reviewed and approved the animal procedures. Female mice from the CD1 strain were utilized to match our study examining THC’s effects on the brain lipidome ([Leishman et al., 2018]). Mice were given a single i.p. injection of either 3 mg/kg CP or 1:1:18 cremophor:ethanol:saline vehicle (please refer to the section “3 mg/kg CP Is Relevant for Synthetic Cannabinoid Abuse and Has Stronger Effects on the Female Mouse Brain Lipidome During Adolescence” for a justification of dose and use of female mice). Three different age groups were given injections: PND 35 and PND 50 adolescents, and adult mice (PND 113). At least eight mice in each age group received CP and at least eight received vehicle. Matching the THC study time course ([Leishman et al., 2018]), mice were sacrificed via rapid decapitation 2 h after injection. Brains were immediately removed and flash-frozen in liquid nitrogen, and then stored at -80°C until dissections were performed. Brains were dissected on an ice-cold dissection plate into the following regions: STR, HIPP, CER, THAL, CTX, HYP, MID, and STEM. These abbreviations for these brain areas will be used exclusively when discussing the results generated by these specific dissections. Each dissected area was immediately placed in liquid nitrogen and then stored at -80°C until used for lipid extraction.
Tissue extracts were performed as previously described ([Bradshaw et al., 2006]; [Stuart et al., 2013]; [Raboune et al., 2014]; [Leishman et al., 2016a],[b], [2017], [2018]). First, samples were shock frozen in liquid nitrogen, weighed, and transferred to a centrifuge tube. The mass of the largest sample was multiplied by 50 to determine how many milliliters of HPLC-grade methanol (Fisher, Fair Lawn, NJ, United States) to add. Then, samples were spiked with 500 pmol deuterium-labeled NAGly (d8NAGly; Cayman Chemical, Ann Arbor, MI, United States). Samples were placed on ice in darkness for 2 h then individually homogenized and centrifuged at 19,000 × g for 20 min at 20°C. Supernatants were diluted with HPLC water (purified in house) to make a solution of 75% water, 25% supernatant. Lipids were partially purified on C18 solid phase extraction columns (Agilent, Palo Alto, CA, United States). A series of four elutions with 1.5 mL of 60%, 75%, 85%, and 100% methanol were collected ([Stuart et al., 2013]; [Leishman et al., 2016a],[b], [2018]).
As previously described ([Bradshaw et al., 2006]; [Tan et al., 2006]; [Smoum et al., 2010]; [Stuart et al., 2013]; [Tortoriello et al., 2013]; [Raboune et al., 2014]; [Leishman et al., 2016a],[b], [2017], [2018]), samples were analyzed using an Applied Biosystems API 3000 triple quadrupole mass spectrometer with electrospray ionization (Foster City, CA, United States). Using an Agilent XDB-C18 reversed phase analytical column and optimized mobile phase gradients, 20 μL from each elution were chromatographed. Two Shimadzu 10ADvp pumps (Columbia, MD, United States) provided the pressure for gradient elution. Mobile phase A: 20% methanol, 80% water (v/v) and 1 mM ammonium acetate (Sigma, St. Louis, MO, United States). Mobile phase B: 100% methanol, 1 mM ammonium acetate. Every method run began with 0% mobile phase B, reached 100% mobile phase B flowing at 0.2 mL/min, and gradually returned to 0% mobile phase B.
This screening library will be referred to as the lipidome when discussing data from this study. HPLC/MS/MS data were analyzed using Analyst software (Applied Biosystems) ([Bradshaw et al., 2006]; [Tan et al., 2006]; [Stuart et al., 2013]; [Tortoriello et al., 2013]; [Raboune et al., 2014]; [Leishman et al., 2016a],[b], [2017], [2018]). Chromatograms (Supplementary Figure 3) were generated by determining the retention time of analytes from the analytical column with a [M-1] or [M+1] parent peak and a fragmentation peak corresponding to the programmed values. […]

[1] = PND 35 midbrain, 3mg/kg, one-way ANOVA

For `CCCCCCC(C)(C)c1ccc([C@@H]2C[C@H](O)CC[C@H]2CCCO)c(O)c1` [CP 55,940], the “N-docosahexaenoyl methionine: Magnitude (x Veh level)” value (PND 35 midbrain, 3mg/kg) was 0.77 x Veh level, the “N-docosahexaenoyl serine: Magnitude (x Veh level)” value (PND 35 midbrain, 3mg/kg) was 0.77 x Veh level and the “N-docosahexaenoyl tyrosine: Magnitude (x Veh level)” value (PND 35 midbrain, 3mg/kg) was 0.79 x Veh level. For the same compound, the “N-docosahexaenoyl valine: Magnitude (x Veh level)” value (PND 35 midbrain, 3mg/kg) was 1.67 x Veh level, the “N-linoleoyl ethanolamine: Magnitude (x Veh level)” value (PND 35 midbrain, 3mg/kg) was 1.24 x Veh level and the “N-oleoyl GABA: Magnitude (x Veh level)” value (PND 35 midbrain, 3mg/kg) was 0.81 x Veh level. The “N-oleoyl ethanolamine: Magnitude (x Veh level)” value (PND 35 midbrain, 3mg/kg) was 0.85 x Veh level, the “N-oleoyl phenylalanine: Magnitude (x Veh level)” value (PND 35 midbrain, 3mg/kg) was 1.11 x Veh level and the “N-oleoyl valine: Magnitude (x Veh level)” value (PND 35 midbrain, 3mg/kg) was 1.48 x Veh level. For the same compound, the “N-palmitoyl leucine: Magnitude (x Veh level)” value (PND 35 midbrain, 3mg/kg) was 1.40 x Veh level, the “N-palmitoyl phenylalanine: Magnitude (x Veh level)” value (PND 35 midbrain, 3mg/kg) was 1.31 x Veh level and the “N-palmitoyl valine: Magnitude (x Veh level)” value (PND 35 midbrain, 3mg/kg) was 1.83 x Veh level. The “N-stearoyl methionine: Magnitude (x Veh level)” value (PND 35 midbrain, 3mg/kg) was 1.15 x Veh level, the “N-stearoyl tyrosine: Magnitude (x Veh level)” value (PND 35 midbrain, 3mg/kg) was 0.82 x Veh level and the “N-stearoyl valine: Magnitude (x Veh level)” value (PND 35 midbrain, 3mg/kg) was 1.40 x Veh level. The “PGE2: Magnitude (x Veh level)” value (PND 35 midbrain, 3mg/kg) was 1.15 x Veh level, the “PGF2α: Magnitude (x Veh level)” value (PND 35 midbrain, 3mg/kg) was 1.22 x Veh level and the “phoshoLEA: Magnitude (x Veh level)” value (PND 35 midbrain, 3mg/kg) was 1.41 x Veh level. The “2-linoleoyl glycerol: Direction (rel to Veh)” value [1] was “↓”, the “6-ketoPGF1α: Direction (rel to Veh)” value [1] was “↓” and the “Arachidonic acid: Direction (rel to Veh)” value [1] was “↓”. For the same compound, the “N-arachidonoyl GABA: Direction (rel to Veh)” value [1] was “↓”, the “N-arachidonoyl alanine: Direction (rel to Veh)” value [1] was “↓” and the “N-arachidonoyl glycine: Direction (rel to Veh)” value [1] was “↓”. For the same compound, the “N-arachidonoyl serine: Direction (rel to Veh)” value [1] was “↓”, the “N-arachidonoyl taurine: Direction (rel to Veh)” value [1] was “↓” and the “N-arachidonoyl tyrosine: Direction (rel to Veh)” value [1] was “↓”. The “N-docosahexaenoyl GABA: Direction (rel to Veh)” value [1] was “↓”, the “N-docosahexaenoyl alanine: Direction (rel to Veh)” value [1] was “↓” and the “N-docosahexaenoyl glycine: Direction (rel to Veh)” value [1] was “↓”. For the same compound, the “N-docosahexaenoyl leucine: Direction (rel to Veh)” value [1] was “↑”, the “N-docosahexaenoyl methionine: Direction (rel to Veh)” value [1] was “↓” and the “N-docosahexaenoyl serine: Direction (rel to Veh)” value [1] was “↓”. For the same compound, the “N-docosahexaenoyl tyrosine: Direction (rel to Veh)” value [1] was “↓”, the “N-docosahexaenoyl valine: Direction (rel to Veh)” value [1] was “↑” and the “N-linoleoyl ethanolamine: Direction (rel to Veh)” value [1] was “↑”. For the same compound, the “N-oleoyl GABA: Direction (rel to Veh)” value [1] was “↓”, the “N-oleoyl ethanolamine: Direction (rel to Veh)” value [1] was “↓” and the “N-oleoyl phenylalanine: Direction (rel to Veh)” value [1] was “↑”. For the same compound, the “N-oleoyl valine: Direction (rel to Veh)” value [1] was “↑”, the “N-palmitoyl leucine: Direction (rel to Veh)” value [1] was “↑” and the “N-palmitoyl phenylalanine: Direction (rel to Veh)” value [1] was “↑”. For the same compound, the “N-palmitoyl valine: Direction (rel to Veh)” value [1] was “↑”, the “N-stearoyl methionine: Direction (rel to Veh)” value [1] was “↑” and the “N-stearoyl tyrosine: Direction (rel to Veh)” value [1] was “↓”. For the same compound, the “N-stearoyl valine: Direction (rel to Veh)” value [1] was “↑”, the “PGE2: Direction (rel to Veh)” value [1] was “↑” and the “PGF2α: Direction (rel to Veh)” value [1] was “↑”. The “phoshoLEA: Direction (rel to Veh)” value [1] was “↑”, the 2-arachidonoyl-sn-glycerol mean level (PND 35 striatum) was 8.26E-11 moles per gram and the 2-linoleoyl-sn-glycerol mean level (PND 35 striatum) was 6.79E-11 moles per gram. The 2-oleoyl-sn-glycerol mean level (PND 35 striatum) was 6.52E-10 moles per gram, the 2-palmitoyl-sn-glycerol mean level (PND 35 striatum) was 3.66E-10 moles per gram and the 6-ketoPGF1α mean level (PND 35 striatum) was 5.31E-12 moles per gram. For the same compound, the “Arachidonic acid mean level” value (PND 35 striatum) was 1.87E-09 moles per gram, the “Linoleic acid mean level” value (PND 35 striatum) was 4.78E-10 moles per gram and the “N- stearoyl valine mean level” value (PND 35 striatum) was 4.54E-13 moles per gram. The “N-arachidonoyl GABA mean level” value (PND 35 striatum) was 7.34E-12 moles per gram, the “N-arachidonoyl alanine mean level” value (PND 35 striatum) was 7.95E-12 moles per gram and the “N-arachidonoyl ethanolamine mean level” value (PND 35 striatum) was 1.25E-11 moles per gram. For the same compound, the “N-arachidonoyl glycine mean level” value (PND 35 striatum) was 2.49E-11 moles per gram, the “N-arachidonoyl phenylalanine mean level” value (PND 35 striatum) was 5.08E-13 moles per gram and the “N-arachidonoyl serine mean level” value (PND 35 striatum) was 2.14E-12 moles per gram. The “N-arachidonoyl taurine mean level” value (PND 35 striatum) was 4.32E-11 moles per gram, the “N-arachidonoyl tyrosine mean level” value (PND 35 striatum) was 3.18E-13 moles per gram and the “N-docosahexaenoyl GABA mean level” value (PND 35 striatum) was 7.6E-13 moles per gram. The “N-docosahexaenoyl alanine mean level” value (PND 35 striatum) was 3E-12 moles per gram, the “N-docosahexaenoyl ethanolamine mean level” value (PND 35 striatum) was 1.6E-11 moles per gram and the “N-docosahexaenoyl glycine mean level” value (PND 35 striatum) was 1.04E-11 moles per gram. The “N-docosahexaenoyl leucine mean level” value (PND 35 striatum) was 5.34E-13 moles per gram, the “N-docosahexaenoyl phenylalanine mean level” value (PND 35 striatum) was 5.57E-13 moles per gram and the “N-docosahexaenoyl serine mean level” value (PND 35 striatum) was 9.97E-12 moles per gram. The “N-linoleoyl alanine mean level” value (PND 35 striatum) was 1.57E-12 moles per gram, the “N-linoleoyl ethanolamine mean level” value (PND 35 striatum) was 3.02E-11 moles per gram and the “N-linoleoyl glycine mean level” value (PND 35 striatum) was 1.9E-12 moles per gram. The “N-linoleoyl serine mean level” value (PND 35 striatum) was 4.58E-11 moles per gram, the “N-oleoyl GABA mean level” value (PND 35 striatum) was 1.45E-12 moles per gram and the “N-oleoyl alanine mean level” value (PND 35 striatum) was 6.67E-12 moles per gram. The “N-oleoyl ethanolamine mean level” value (PND 35 striatum) was 6.1E-11 moles per gram, the “N-oleoyl glycine mean level” value (PND 35 striatum) was 1.1E-11 moles per gram and the “N-oleoyl leucine mean level” value (PND 35 striatum) was 1.08E-12 moles per gram. The “N-oleoyl methionine mean level” value (PND 35 striatum) was 9.72E-13 moles per gram, the “N-oleoyl phenylalanine mean level” value (PND 35 striatum) was 6.72E-13 moles per gram and the “N-oleoyl serine mean level” value (PND 35 striatum) was 2.35E-10 moles per gram. The “N-oleoyl tyrosine mean level” value (PND 35 striatum) was 1.91E-13 moles per gram, the “N-oleoyl valine mean level” value (PND 35 striatum) was 3.53E-13 moles per gram and the “N-palmitoyl GABA mean level” value (PND 35 striatum) was 3.96E-12 moles per gram. The “N-palmitoyl alanine mean level” value (PND 35 striatum) was 1.47E-11 moles per gram, the “N-palmitoyl ethanolamine mean level” value (PND 35 striatum) was 3.18E-11 moles per gram and the “N-palmitoyl glycine mean level” value (PND 35 striatum) was 2.93E-11 moles per gram. For the same compound, the “N-palmitoyl leucine mean level” value (PND 35 striatum) was 2.54E-12 moles per gram, the “N-palmitoyl methionine mean level” value (PND 35 striatum) was 1.86E-12 moles per gram and the “N-palmitoyl phenylalanine mean level” value (PND 35 striatum) was 1.48E-12 moles per gram. For the same compound, the “N-palmitoyl proline mean level” value (PND 35 striatum) was 1.03E-12 moles per gram, the “N-palmitoyl serine mean level” value (PND 35 striatum) was 3.33E-11 moles per gram and the “N-palmitoyl tryptophan mean level” value (PND 35 striatum) was 2.09E-13 moles per gram. The “N-palmitoyl tyrosine mean level” value (PND 35 striatum) was 3.84E-13 moles per gram, the “N-palmitoyl valine mean level” value (PND 35 striatum) was 9.76E-13 moles per gram and the “N-stearoyl GABA mean level” value (PND 35 striatum) was 3.5E-12 moles per gram. For the same compound, the “N-stearoyl alanine mean level” value (PND 35 striatum) was 1.12E-11 moles per gram, the “N-stearoyl ethanolamine mean level” value (PND 35 striatum) was 9E-12 moles per gram and the “N-stearoyl glycine mean level” value (PND 35 striatum) was 1.64E-11 moles per gram.
